Among the data in ChEMBL document CHEMBL1124653, “11 beta-nitrate estrane analogues: potent estrogens” (1989) are Relative potency values, retold here.

The structures appear in SMILES notation.

The experiment addresses Estrogen receptor (Rattus norvegicus) (UniProt P06211+Q62986). In words: Estrogenic potency in rats by subcutaneous dose relative to estradiol. The experiment is classed as functional.
Turning to `CC(=O)Oc1ccc2c(c1)C[C@@H](C)[C@@H]1[C@@H]2[C@@H](O[N+](=O)[O-])C[C@]2(C)C(=O)CC[C@@H]12` (stereo in doubt; 2b), the Relative potency came to 34.

On to `CC(=O)Oc1ccc2c(c1)C[C@@H](C)[C@@H]1[C@@H]2[C@@H](O[N+](=O)[O-])C[C@]2(C)C(=O)CC[C@@H]12` (stereo in doubt; 3b), for which the Relative potency came out at 7470.

Compound `CC(=O)Oc1ccc2c(c1)CC[C@H]1[C@@H]3CCC(=O)[C@@]3(C)C[C@H](O[N+](=O)[O-])[C@]21O` returned a Relative potency of 4.
